Values quoted from earlier work in patent publication US6689382B2, “Soft shell gelatin capsules containing non-steroidal anti-inflammatories” (priority 2002, dated 2004).

Experiments:
[1] = clinical trials
COX-2 and COX-1 = details: for selectivity for COX-1 and COX-2 (in words): conventional 1st generation NSAIDs; for ratio COX-2 IC50 divided by COX-1 IC50: in vitro, the smaller the ratio the more selective for COX-2

| SMILES | selectivity for COX-1 and COX-2 (in words) (COX-2 and COX-1) | ratio COX-2 IC50 divided by COX-1 IC50 (COX-2 and COX-1) | other results |
| --- | --- | --- | --- |
| Cc1ccc(-c2cc(C(F)(F)F)nn2-c2ccc(S(N)(=O)=O)cc2)cc1 [celecoxib, Celecoxib] | – | – | anti-inflammatory activity [1]: effective anti-inflammatory activity; gastrointestinal adverse effects ([1]; compared to placebo): virtually no gastrointestinal adverse effects |
| CC(C)Cc1ccc(C(C)C(=O)O)cc1 (stereo not shown) [ibuprofen] | essentially non-selective | – | – |
| COc1ccc2c(c1)c(CC(=O)O)c(C)n2C(=O)c1ccc(Cl)cc1 [indomethacin] | – | about 30 | – |
| CC(C(=O)O)c1cccc(C(=O)c2ccccc2)c1 (stereo not shown) [ketoprofen] | relatively COX-1 selective | – | – |
| COc1ccc2cc([C@H](C)C(=O)O)ccc2c1 [naproxen] | essentially non-selective | – | – |
| CN1C(C(=O)Nc2ccccn2)=C(O)c2ccccc2S1(=O)=O [piroxicam] | – | about 30 | – |
